Legend:
[1] = The drug is tested on Eggerthella lenta strain: ATCC25559 for biotransformation. The drug concentrations were measured before and after a 12-h incubation by liquid-chromatography-coupled mass spectrometry (LC–MS); conditions: 2 µM
[2] = The drug is tested on Bacteroides vulgatus strain: ATCC8482 for biotransformation. The drug concentrations were measured before and after a 12-h incubation by liquid-chromatography-coupled mass spectrometry (LC–MS); conditions: phocaeicola vulgatus, 2 µM
[3] = The drug is tested on Ruminococcus torques strain: ATCC27756 for biotransformation. The drug concentrations were measured before and after a 12-h incubation by liquid-chromatography-coupled mass spectrometry (LC–MS); type: ADME; design: dose 2 uM, timepoint 0 vs 12 hours; conditions: 2 µM
[4] = bacteroides stercoris, 12 h, 2 µM
Description: The drug is tested on Bacteroides stercoris strain: ATCC43183 for biotransformation. The drug concentrations were measured before and after a 12-h incubation by liquid-chromatography-coupled mass spectrometry (LC–MS)

[5] = parabacteroides distasonis, 12 h, 2 µM
Description: The drug is tested on Parabacteroides distasonis strain: ATCC8503 for biotransformation. The drug concentrations were measured before and after a 12-h incubation by liquid-chromatography-coupled mass spectrometry (LC–MS)

[6] = limosilactobacillus reuteri cf48-3a, 12 h, 2 µM
Description: The drug is tested on Lactobacillus reuteri CF48-3A strain: BEI HM-102 for biotransformation. The drug concentrations were measured before and after a 12-h incubation by liquid-chromatography-coupled mass spectrometry (LC–MS)

[7] = victivallis vadensis, 12 h, 2 µM
Description: The drug is tested on Victivallis vadensis strain: ATCC BAA-548 for biotransformation. The drug concentrations were measured before and after a 12-h incubation by liquid-chromatography-coupled mass spectrometry (LC–MS)

CCN(CC)C(=O)C1(c2ccccc2)CC1CN (stereo not drawn)
Bacterial Biotransformation [1]: Compound NOT metabolized | Bacterial Biotransformation [2]: Compound NOT metabolized | Bacterial Biotransformation [3]: Compound NOT metabolized | Bacterial Biotransformation [4]: Compound NOT metabolized | Bacterial Biotransformation [5]: Compound NOT metabolized | Bacterial Biotransformation [6]: Compound NOT metabolized | Bacterial Biotransformation [7]: Compound NOT metabolized

Cc1nc(Nc2ncc(C(=O)Nc3c(C)cccc3Cl)s2)cc(N2CCN(CCO)CC2)n1.O [DASATINIB]
Bacterial Biotransformation [1]: Compound NOT metabolized | Bacterial Biotransformation [3]: Compound NOT metabolized | Bacterial Biotransformation [4]: Compound metabolized | Bacterial Biotransformation [5]: Compound metabolized | Bacterial Biotransformation [6]: Compound metabolized | Bacterial Biotransformation [7]: Compound NOT metabolized

CCN(CC)CCOC(=O)C1(C2CCCCC2)CCCCC1 [DICYCLOMINE]
Bacterial Biotransformation [1]: Compound metabolized | Bacterial Biotransformation [2]: Compound metabolized | Bacterial Biotransformation [3]: Compound metabolized | Bacterial Biotransformation [5]: Compound metabolized | Bacterial Biotransformation [7]: Compound NOT metabolized

CN1CCN(C(=O)O[C@H]2c3nccnc3C(=O)N2c2ccc(Cl)cn2)CC1 [ESZOPICLONE]
Bacterial Biotransformation [1]: Compound NOT metabolized | Bacterial Biotransformation [2]: Compound metabolized | Bacterial Biotransformation [3]: Compound NOT metabolized | Bacterial Biotransformation [4]: Compound NOT metabolized | Bacterial Biotransformation [5]: Compound NOT metabolized | Bacterial Biotransformation [6]: Compound NOT metabolized | Bacterial Biotransformation [7]: Compound NOT metabolized

CC(C)(C)NC(=O)[C@H]1CC[C@H]2[C@@H]3CC[C@H]4NC(=O)C=C[C@]4(C)[C@H]3CC[C@]12C [FINASTERIDE]
Bacterial Biotransformation [2]: Compound metabolized | Bacterial Biotransformation [3]: Compound NOT metabolized | Bacterial Biotransformation [4]: Compound NOT metabolized | Bacterial Biotransformation [5]: Compound NOT metabolized | Bacterial Biotransformation [6]: Compound NOT metabolized | Bacterial Biotransformation [7]: Compound NOT metabolized

OCCN1CCN(CCCN2c3ccccc3Sc3ccc(C(F)(F)F)cc32)CC1 [FLUPHENAZINE]
Bacterial Biotransformation [1]: Compound NOT metabolized | Bacterial Biotransformation [2]: Compound metabolized | Bacterial Biotransformation [3]: Compound NOT metabolized | Bacterial Biotransformation [4]: Compound metabolized | Bacterial Biotransformation [5]: Compound metabolized | Bacterial Biotransformation [6]: Compound metabolized | Bacterial Biotransformation [7]: Compound NOT metabolized

Cc1ccc(S(=O)(=O)NC(=O)NN2CC3CCCC3C2)cc1 (stereo not drawn) [GLICLAZIDE]
Bacterial Biotransformation [1]: Compound NOT metabolized | Bacterial Biotransformation [2]: Compound metabolized | Bacterial Biotransformation [3]: Compound NOT metabolized | Bacterial Biotransformation [4]: Compound NOT metabolized | Bacterial Biotransformation [5]: Compound NOT metabolized | Bacterial Biotransformation [6]: Compound NOT metabolized | Bacterial Biotransformation [7]: Compound NOT metabolized

COC1=C(OC)C(=O)C(CCCCCCCCCCO)=C(C)C1=O [IDEBENONE]
Bacterial Biotransformation [1]: Compound NOT metabolized | Bacterial Biotransformation [2]: Compound metabolized | Bacterial Biotransformation [3]: Compound NOT metabolized | Bacterial Biotransformation [4]: Compound NOT metabolized | Bacterial Biotransformation [5]: Compound NOT metabolized | Bacterial Biotransformation [6]: Compound NOT metabolized | Bacterial Biotransformation [7]: Compound NOT metabolized

COc1ccc2c(c1)c(CC(=O)O)c(C)n2C(=O)c1ccc(Cl)cc1 [INDOMETHACIN]
Bacterial Biotransformation [1]: Compound NOT metabolized | Bacterial Biotransformation [2]: Compound metabolized | Bacterial Biotransformation [3]: Compound NOT metabolized | Bacterial Biotransformation [4]: Compound metabolized | Bacterial Biotransformation [5]: Compound metabolized | Bacterial Biotransformation [6]: Compound metabolized | Bacterial Biotransformation [7]: Compound NOT metabolized

N#Cc1ccc(C(c2ccc(C#N)cc2)n2cncn2)cc1 [LETROZOLE]
Bacterial Biotransformation [2]: Compound NOT metabolized | Bacterial Biotransformation [3]: Compound NOT metabolized | Bacterial Biotransformation [4]: Compound NOT metabolized | Bacterial Biotransformation [5]: Compound NOT metabolized | Bacterial Biotransformation [6]: Compound NOT metabolized | Bacterial Biotransformation [7]: Compound NOT metabolized

Cc1ccccc1N1C(=O)c2cc(S(N)(=O)=O)c(Cl)cc2NC1C (stereo not drawn) [METOLAZONE]
Bacterial Biotransformation [2]: Compound NOT metabolized | Bacterial Biotransformation [3]: Compound NOT metabolized | Bacterial Biotransformation [4]: Compound NOT metabolized | Bacterial Biotransformation [5]: Compound NOT metabolized | Bacterial Biotransformation [6]: Compound NOT metabolized | Bacterial Biotransformation [7]: Compound NOT metabolized

CCN(CC)CCOC(=O)C(Cc1cccc2ccccc12)CC1CCCO1.O=C(O)C(=O)O (stereo not drawn) [NAFRONYL OXALATE]
Bacterial Biotransformation [2]: Compound metabolized | Bacterial Biotransformation [3]: Compound NOT metabolized | Bacterial Biotransformation [4]: Compound NOT metabolized | Bacterial Biotransformation [5]: Compound NOT metabolized | Bacterial Biotransformation [6]: Compound NOT metabolized | Bacterial Biotransformation [7]: Compound NOT metabolized

C=CCN1CC[C@]23c4c5ccc(O)c4O[C@H]2C(=O)CC[C@@]3(O)[C@H]1C5 [NALOXONE]
Bacterial Biotransformation [1]: Compound metabolized | Bacterial Biotransformation [2]: Compound metabolized | Bacterial Biotransformation [3]: Compound metabolized | Bacterial Biotransformation [5]: Compound NOT metabolized | Bacterial Biotransformation [6]: Compound metabolized | Bacterial Biotransformation [7]: Compound NOT metabolized

CCc1nn(CCCN2CCN(c3cccc(Cl)c3)CC2)c(=O)n1CCOc1ccccc1 [NEFAZODONE]
Bacterial Biotransformation [1]: Compound NOT metabolized | Bacterial Biotransformation [3]: Compound NOT metabolized | Bacterial Biotransformation [4]: Compound NOT metabolized | Bacterial Biotransformation [5]: Compound NOT metabolized | Bacterial Biotransformation [6]: Compound NOT metabolized | Bacterial Biotransformation [7]: Compound NOT metabolized

Cc1cc2c(s1)Nc1ccccc1N=C2N1CCN(C)CC1 [OLANZAPINE]
Bacterial Biotransformation [2]: Compound NOT metabolized | Bacterial Biotransformation [3]: Compound NOT metabolized | Bacterial Biotransformation [4]: Compound NOT metabolized | Bacterial Biotransformation [5]: Compound NOT metabolized | Bacterial Biotransformation [6]: Compound NOT metabolized | Bacterial Biotransformation [7]: Compound NOT metabolized

NC(=O)N1c2ccccc2CC(=O)c2ccccc21 [OXCARBAZEPINE]
Bacterial Biotransformation [1]: Compound metabolized | Bacterial Biotransformation [3]: Compound metabolized | Bacterial Biotransformation [4]: Compound metabolized | Bacterial Biotransformation [5]: Compound metabolized | Bacterial Biotransformation [6]: Compound metabolized | Bacterial Biotransformation [7]: Compound NOT metabolized

CN(C(=O)CN(CCO)CC(=O)N(C)C(C)(C)Cc1ccccc1)C(C)(C)Cc1ccccc1 [OXETHAZAINE]
Bacterial Biotransformation [1]: Compound NOT metabolized | Bacterial Biotransformation [2]: Compound NOT metabolized | Bacterial Biotransformation [3]: Compound NOT metabolized | Bacterial Biotransformation [4]: Compound NOT metabolized | Bacterial Biotransformation [7]: Compound NOT metabolized

CCN(CC)CC#CCOC(=O)C(O)(c1ccccc1)C1CCCCC1.Cl (stereo not drawn) [OXYBUTYNIN CHLORIDE]
Bacterial Biotransformation [1]: Compound NOT metabolized | Bacterial Biotransformation [2]: Compound metabolized | Bacterial Biotransformation [4]: Compound NOT metabolized | Bacterial Biotransformation [5]: Compound NOT metabolized | Bacterial Biotransformation [6]: Compound NOT metabolized | Bacterial Biotransformation [7]: Compound NOT metabolized

CCCN1C[C@H](CSC)C[C@@H]2c3cccc4[nH]cc(c34)C[C@H]21.CS(=O)(=O)O [PERGOLIDE MESYLATE]
Bacterial Biotransformation [1]: Compound NOT metabolized | Bacterial Biotransformation [2]: Compound NOT metabolized | Bacterial Biotransformation [3]: Compound NOT metabolized | Bacterial Biotransformation [4]: Compound NOT metabolized | Bacterial Biotransformation [6]: Compound NOT metabolized | Bacterial Biotransformation [7]: Compound NOT metabolized
